Measured values reported in paper PMC9014845 (Clinical cancer research : an official journal of the …, 2019).

Assays:
[1] = Allometric scaling of single dose PK data from mice, rats and monkeys; set-up: species or system human; conditions: allometric scaling model of single dose PK data from mice, rats, monkeys
FGFRs 1–3 = conditions: in vitro, ATP-competitive; cited from earlier work
Plasma pharmacokinetics = assay type: in vivo, human
FGFR = assay: Blood PD biomarkers; assay type: in vivo, human
monkeys = assay: 4-week repeated-dose toxicity study; assay type: in vivo, monkey
[2] = tested on: tumor models with FGFR alterations; conditions: several tumor models with FGFR alterations in vivo; cited from earlier work

Debio 1347
Predicted plasma half-life in humans [1]: 9 h | Inhibitory concentration for FGFRs 1–3 (FGFRs 1–3): low nanomolar | Mean relative oral bioavailability of tablets versus capsules (Plasma pharmacokinetics; 40 mg single dose, cross-over, 90% CI 0.73–1.05, n=9): 0.88 | Time to steady-state (Ctrough) (Plasma pharmacokinetics; majority of patients, once-daily dosing): during the first week of treatment | Time to detection in plasma (Plasma pharmacokinetics; post-first dose, majority of patients): ≤ 30 min | Median tmax (Plasma pharmacokinetics; post-first oral dose, range 1.5–24): 3 h | Plasma half-life (mean) (Plasma pharmacokinetics; post-first oral dose, range 4.7–20.6): 11.5 h | Mean apparent oral clearance (Plasma pharmacokinetics; range 2.7–13.9): 7.0 L/h | Hyperphosphatemia versus plasma exposure (FGFR; maximum serum phosphate in cycle 1 versus plasma trough levels): correlated with Debio 1347 exposure | Dose at which serum phosphate confirmed target engagement (FGFR; oral once daily): ≥ 60 mg/day | Ctrough at which serum phosphate increases of 50% from baseline were achieved (FGFR; seen in about half of patients at 60 mg/day, majority at ≥80 mg/day): about 400 ng/mL | Plasma FGF23 change (FGFR; steady-state, without clear relationship to the dose): overall increase | Highest non-severely toxic dose (monkeys): 4 mg/kg/day | Efficacy in tumor models [2]: effective
